Marks after values point to notes of the source that are not given here.
System: photodamaged facial skin
Assay: clinical study of topical treatment of photodamaged facial skin, 12 weeks
Type: in vivo, human
Settings: for investigator's assessment of overall improvement in skin condition (relative to baseline): 6-point scale (1=excellent improvement to 5=no improvement; 6=worse); for investigator's assessment of overall skin condition: 10 point scale (0=None; 1-3=Mild; 4-6=Moderate; 7-9=Severe); for Mean Improvement from Baseline: TEWL / Mean Improvement from Baseline: Coarse Wrinkles / Mean Improvement from Baseline: Fine Wrinkles / Mean Improvement from Baseline: Mottled Hyperpigmentation / Mean Improvement from Baseline: Overall Skin Condition / Mean Improvement from Baseline: Roughness / Subjects Reporting Improvement from Baseline: Blotchiness / Subjects Reporting Improvement from Baseline: Color / Subjects Reporting Improvement from Baseline: Fine Wrinkles / Subjects Reporting Improvement from Baseline: Texture: 0.10% topical; for Mean Improvement from Baseline: Coarse Wrinkles / Mean Improvement from Baseline: Fine Wrinkles / Mean Improvement from Baseline: Mottled Hyperpigmentation / Mean Improvement from Baseline: Overall Skin Condition / Mean Improvement from Baseline: Roughness: expert evaluation; for Skin Moisture / TEWL: 0.10% in MillCreek Lotion twice daily
Text: A clinical study has been conducted to determine the cosmetic efficacy and subjects' tolerance of topical 6-furfurylamino-9-(2-tetrahydropyranyl)purine (0.10%) applied twice daily for 12 weeks to improve the clinical signs and symptoms of photodamaged facial skin. Forty female volunteer subjects age 40 to 65 with mild to moderate signs of photo damaged facial skin were enroled in the study. Thirty four subjects competed the study; the mean age of subjects competing the study was about 54 years. Subjects were instructed to apply the test product to the entire facial skin twice daily (i.e., early morning and approximately 1 hour before bedtime) for 12 consecutive weeks. Subjects were also instructed that, other than sunscreens or mild cleansers and use of color cosmetics, no other topical skin care products or medications were to be used on the face during the study. The test product comprised 0.1 percent 6-furfurylamino-9-(2-tetrahydropyranyl)purine in MillCreek Lotion as vehicle.
Subjects were assessed at weeks 2, 4, 8, and 12. The treated facial skin was evaluated for clinical signs of skin aging (e.g., coarse and fine wrinkles, roughness, mottled hyperpigmentation) at study entry (baseline) as well as 2, 4, 8 and 12 weeks. The subjects' self-assessment of improvement over baseline (wrinkles, texture, blotchiness, color, and overall improvement) were also obtained. In addition, transepidermal water loss (TEWL) and skin moisture measurements were taken on the cheeks of all subjects.
TEWL refers to the amount of water vapor loss through the stratum corneum. […] TEWL measurements were taken using a TEWL meter (Courage & Khazaka, Köln, Germany) having composed of a probe (containing humidity and temperature sensors) connected to a central processing unit. For each subject, the probe was placed in the center of both cheeks and measurements taken in duplicate.
An indirect measurement of the skin's moisture content was made by measuring changes in the skin's electrical properties. Impedance based capacitance measurements were taken on the skin using a NOVA DPM 9003® (NOVA Technologies, Gloucester, Mass., USA). The instrument performs measurements at varying preselected frequencies (up to 1 MHz) of the applied alternating current. A value directly related to capacitance is determined in arbitrary units; a higher value indicates a greater capacitance which indicates an increased level of moisture at the test site. Measurements in triplicate were taken in the center of both cheeks for each test subject.
At the baseline (Day 0) visit, an investigator evaluated each subject's face for the presence of fine wrinkles, coarse wrinkles, roughness, mottled hyperpigmentation, and other parameters using a five-point scale (0=None; 1=Minimal; 2=Mild; 3=Moderate; and 4=Severe). The overall severity of skin photodamage (wrinkles, roughness and mottled hyperpigmentation) was evaluated using a 10 point scale (0=None; 1-3=Mild; 4-6=Moderate; and 7-9=Severe); subjects with baseline severity scores greater than 6 were excluded from the study.
On each subsequent visit, the investigator evaluated overall improvement compared to baseline using a 6-point scale (1=excellent improvement; 2=marked improvement; 3=moderate improvement; 4=slight improvement; 5=no improvement; and 6=worse).
At each subsequent visit, the subjects were asked to complete a self-assessment questionnaire to assess the improvement from baseline for skin texture, skin color, blotchiness (i.e., brown spots), fine wrinkles; and overall improvement using a five-point scale (1=much improved; 2=somewhat improved; 3=no change; 4=somewhat worse; and 5=much worse).
This Example compares the clinical data for topically applied 6-furfurylamino-9-(2-tetrahydropyranyl)purine (0.10%) taken from Example 23 with similar clinical data generated for topically applied kinetin (0.1%) from an earlier study. […]

[1] = Eight Week Data, self assessment
[2] = Twelve Week Data, self assessment
[3] = Week 2, investigator, five-point scale 0=None to 4=Severe
[4] = Week 2, subjects' self assessment, five-point scale 1=much improved to 5=much worse
[5] = Week 4, investigator, five-point scale 0=None to 4=Severe
[6] = Week 4, subjects' self assessment, five-point scale 1=much improved to 5=much worse
[7] = Week 8, investigator, five-point scale 0=None to 4=Severe
[8] = Week 8, subjects' self assessment, five-point scale 1=much improved to 5=much worse
[9] = Week 12, investigator, five-point scale 0=None to 4=Severe
[10] = Week 12, subjects' self assessment, five-point scale 1=much improved to 5=much worse

With `c1coc(CNc2ncnc3c2ncn3C2CCCCO2)c1` (centres unmarked) [6-furfurylamino-9-(2-tetrahydropyranyl)purine] the “overall skin condition, change relative to baseline” value (2 weeks) was −1.22%, the “investigator's assessment of overall improvement in skin condition (relative to baseline)” value (2 weeks) was 4.95 and the “investigator's assessment of overall skin condition” value (2 weeks) was 4.05. For the same compound, the “overall improvement, change relative to 2 week data” value (4 weeks) was −10.61%, the “overall skin condition, change relative to baseline” value (4 weeks) was −15.23% and the “investigator's assessment of overall improvement in skin condition (relative to baseline)” value (4 weeks) was 4.44. The “investigator's assessment of overall skin condition” value (4 weeks) was 3.56, the “overall improvement, change relative to 2 week data” value (8 weeks) was −16.67% and the “overall skin condition, change relative to baseline” value (8 weeks) was −24.32%. The “investigator's assessment of overall improvement in skin condition (relative to baseline)” value (8 weeks) was 4.11, the “investigator's assessment of overall skin condition” value (8 weeks) was 3.20 and the “overall improvement, change relative to 2 week data” value (12 weeks) was −17.16%. The “overall skin condition, change relative to baseline” value (12 weeks) was −27.97%, the “investigator's assessment of overall improvement in skin condition (relative to baseline)” value (12 weeks) was 4.12 and the “investigator's assessment of overall skin condition” value (12 weeks) was 3.03. The “Mean Improvement from Baseline: TEWL” value (Eight Week Data) was 1%, the “Mean Improvement from Baseline: Coarse Wrinkles” value (Eight Week Data) was 7% and the “Mean Improvement from Baseline: Fine Wrinkles” value (Eight Week Data) was 22%*. For the same compound, the “Mean Improvement from Baseline: Mottled Hyperpigmentation” value (Eight Week Data) was 31%*, the “Mean Improvement from Baseline: Overall Skin Condition” value (Eight Week Data) was 24%* and the “Mean Improvement from Baseline: Roughness” value (Eight Week Data) was 86%*. For the same compound, the “Subjects Reporting Improvement from Baseline: Blotchiness” value [1] was 60%, the “Subjects Reporting Improvement from Baseline: Color” value [1] was 66% and the “Subjects Reporting Improvement from Baseline: Fine Wrinkles” value [1] was 83%. The “Subjects Reporting Improvement from Baseline: Texture” value [1] was 83%, the “Mean Improvement from Baseline: TEWL” value (Twelve Week Data) was 28% and the “Mean Improvement from Baseline: Coarse Wrinkles” value (Twelve Week Data) was 14%*. The “Mean Improvement from Baseline: Fine Wrinkles” value (Twelve Week Data) was 28%*, the “Mean Improvement from Baseline: Mottled Hyperpigmentation” value (Twelve Week Data) was 41%* and the “Mean Improvement from Baseline: Overall Skin Condition” value (Twelve Week Data) was 28%*. The “Mean Improvement from Baseline: Roughness” value (Twelve Week Data) was 84%*, the “Subjects Reporting Improvement from Baseline: Blotchiness” value [2] was 63% and the “Subjects Reporting Improvement from Baseline: Color” value [2] was 68%. The “Subjects Reporting Improvement from Baseline: Fine Wrinkles” value [2] was 88%, the “Subjects Reporting Improvement from Baseline: Texture” value [2] was 88% and the “Acne Change Relative to Baseline” value (Week 2) was −4.00%. For the same compound, the “Coarse Wrinkles Change Relative to Baseline” value (Week 2) was 4.44%, the “Erythema Change Relative to Baseline” value (Week 2) was −33.33% and the “Mottled Hyperpigmentation Change Relative to Baseline” value (Week 2) was −1.45%. The “Roughness Change Relative to Baseline” value (Week 2) was −37.31%, the “Skin Irritation Change Relative to Baseline” value (Week 2) was 0 and the “Skin Moisture Change Relative to Baseline” value (Week 2) was 6.22%. The “TEWL Change Relative to Baseline” value (Week 2) was −1.98%, the “Skin Moisture” value (Week 2) was 125.37* arbitrary units and the TEWL (Week 2) was 12.89 g/m^2/hr. For the same compound, the “Fine Wrinkles Change Relative to Baseline” value (Week 2, investigator) was −1.28%, the Acne [3] was 0.60 and the “Coarse Wrinkles” value [3] was 2.35. For the same compound, the Erythema [3] was 0.40^††, the “Fine Wrinkles” value [3] was 2.18 and the “Mottled Hyperpigmentation” value [3] was 1.70. The Roughness [3] was 1.05*, the “Skin Irritation” value [3] was 0 and the “Blotchiness/Brown Spots” value [4] was 2.70. For the same compound, the “Fine Wrinkles” value [4] was 2.62, the “Overall Improvement” value [4] was 2.36 and the “Skin Color” value [4] was 2.74. For the same compound, the “Skin Texture” value [4] was 2.21, the “Acne Change Relative to Baseline” value (Week 4) was −13.64% and the “Coarse Wrinkles Change Relative to Baseline” value (Week 4) was −4.76%. The “Erythema Change Relative to Baseline” value (Week 4) was −47.62%, the “Mottled Hyperpigmentation Change Relative to Baseline” value (Week 4) was −15.63% and the “Roughness Change Relative to Baseline” value (Week 4) was −63.79%. The “Skin Irritation Change Relative to Baseline” value (Week 4) was 0, the “Skin Moisture Change Relative to Baseline” value (Week 4) was 20.96% and the “TEWL Change Relative to Baseline” value (Week 4) was −9.62%. The “Skin Moisture” value (Week 4) was 141.30* arbitrary units, the TEWL (Week 4) was 11.70* g/m^2/hr and the “Fine Wrinkles Change Relative to Baseline” value (Week 4, investigator) was −11.25%. The Acne [5] was 0.53, the “Coarse Wrinkles” value [5] was 2.22 and the Erythema [5] was 0.31*. The “Fine Wrinkles” value [5] was 1.97*, the “Mottled Hyperpigmentation” value [5] was 1.50* and the Roughness [5] was 0.58*. For the same compound, the “Skin Irritation” value [5] was 0, the “Blotchiness/Brown Spots Change Relative to 2 Week Data” value (Week 4, self assessment) was −6.19% and the “Fine Wrinkles Change Relative to 2 Week Data” value (Week 4, self assessment) was −18.68%. The “Skin Color Change Relative to 2 Week Data” value (Week 4, self assessment) was −5.32%, the “Skin Texture Change Relative to 2 Week Data” value (Week 4, self assessment) was −8.97% and the “overall improvement, change relative to 2 week data” value (Week 4, self assessment) was −6.17%. For the same compound, the “Blotchiness/Brown Spots” value [6] was 2.58, the “Fine Wrinkles” value [6] was 2.11* and the “Overall Improvement” value [6] was 2.14. The “Skin Color” value [6] was 2.50*, the “Skin Texture” value [6] was 2.03* and the “Acne Change Relative to Baseline” value (Week 8) was −9.52%. The “Coarse Wrinkles Change Relative to Baseline” value (Week 8) was −7.23%, the “Erythema Change Relative to Baseline” value (Week 8) was −66.67% and the “Mottled Hyperpigmentation Change Relative to Baseline” value (Week 8) was −30.65%. For the same compound, the “Roughness Change Relative to Baseline” value (Week 8) was −85.71%, the “Skin Irritation Change Relative to Baseline” value (Week 8) was 0 and the “Skin Moisture Change Relative to Baseline” value (Week 8) was 35.10%. For the same compound, the “TEWL Change Relative to Baseline” value (Week 8) was 0.11%, the “Skin Moisture” value (Week 8) was 158.04* arbitrary units and the TEWL (Week 8) was 13.08 g/m^2/hr. The “Fine Wrinkles Change Relative to Baseline” value (Week 8, investigator) was −21.79%, the Acne [7] was 0.53 and the “Coarse Wrinkles” value [7] was 2.20. The Erythema [7] was 0.20*, the “Fine Wrinkles” value [7] was 1.74* and the “Mottled Hyperpigmentation” value [7] was 1.23*. The Roughness [7] was 0.23*, the “Skin Irritation” value [7] was 0 and the “Blotchiness/Brown Spots Change Relative to 2 Week Data” value (Week 8, self assessment) was −18.95%. The “Fine Wrinkles Change Relative to 2 Week Data” value (Week 8, self assessment) was −23.60%, the “Skin Color Change Relative to 2 Week Data” value (Week 8, self assessment) was −18.28% and the “Skin Texture Change Relative to 2 Week Data” value (Week 8, self assessment) was −15.58%. The “overall improvement, change relative to 2 week data” value (Week 8, self assessment) was −16.25%, the “Blotchiness/Brown Spots” value [8] was 2.26* and the “Fine Wrinkles” value [8] was 2.00*. The “Overall Improvement” value [8] was 1.97*, the “Skin Color” value [8] was 2.23* and the “Skin Texture” value [8] was 1.91*. The “Acne Change Relative to Baseline” value (Week 12) was −45.00%, the “Coarse Wrinkles Change Relative to Baseline” value (Week 12) was −13.75% and the “Erythema Change Relative to Baseline” value (Week 12) was −66.67%%. The “Mottled Hyperpigmentation Change Relative to Baseline” value (Week 12) was −40.68%, the “Roughness Change Relative to Baseline” value (Week 12) was −83.64% and the “Skin Irritation Change Relative to Baseline” value (Week 12) was 0. For the same compound, the “Skin Moisture Change Relative to Baseline” value (Week 12) was 41.21%, the “TEWL Change Relative to Baseline” value (Week 12) was −27.79% and the “Skin Moisture” value (Week 12) was 165.42* arbitrary units. For the same compound, the TEWL (Week 12) was 9.54* g/m^2/hr, the “Fine Wrinkles Change Relative to Baseline” value (Week 12, investigator) was −27.63% and the Acne [9] was 0.32*. For the same compound, the “Coarse Wrinkles” value [9] was 2.03*, the Erythema [9] was 0.21* and the “Fine Wrinkles” value [9] was 1.62*. The “Mottled Hyperpigmentation” value [9] was 1.03*, the Roughness [9] was 0.26* and the “Skin Irritation” value [9] was 0. The “Blotchiness/Brown Spots Change Relative to 2 Week Data” value (Week 12, self assessment) was −23.16%, the “Fine Wrinkles Change Relative to 2 Week Data” value (Week 12, self assessment) was −28.09% and the “Skin Color Change Relative to 2 Week Data” value (Week 12, self assessment) was −22.58%. The “Skin Texture Change Relative to 2 Week Data” value (Week 12, self assessment) was −23.38%, the “overall improvement, change relative to 2 week data” value (Week 12, self assessment) was −18.75% and the “Blotchiness/Brown Spots” value [10] was 2.15*. For the same compound, the “Fine Wrinkles” value [10] was 1.88*, the “Overall Improvement” value [10] was 1.91* and the “Skin Color” value [10] was 2.12*. The “Skin Texture” value [10] was 1.74* and the “Skin irritation or other adverse effects” value (over the 12 week study period) was “not observed”.

Source: patent US20130072505A1, “6,9-Disubstituted Purine Derivatives and Their Use for Treating Skin” (priority 2006, published 2013)
